Source: PubChem BioAssay AID608 (Sanford-Burnham Center for Chemical Genomics, 2007)
Where “and” joins values, the source holds several entries; their conditions need not be identical. Equal entries are not always repeated. Calls of active or inactive are those of the source. How the calls were made is not given here.

These molecules were tested against Peptidyl-prolyl cis-trans isomerase FKBP1A (Homo sapiens) (UniProt P62942) (assay: FKBP12 binders, biophysical, NMR detection (AID 608)). Conditions: NMR binding, purified FKBP12.
Peptidyl-prolyl cis-trans isomerase FKBP1A (Homo sapiens), sequence (P62942 whole entry, looked up): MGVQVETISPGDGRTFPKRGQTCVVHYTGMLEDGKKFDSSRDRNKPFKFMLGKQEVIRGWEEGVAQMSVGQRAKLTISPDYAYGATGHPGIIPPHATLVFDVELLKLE
`c1ccc(Cc2nn3c(-c4ccncc4)nnc3s2)cc1` was tested, and the Kd was > 4 mM (inactive).
For `COc1ccc2c(Cl)c(C(=O)N3CCOCC3)sc2c1Cl`, the Kd was “inactive”.
In the case of `CC(=O)NCC1OCCc2ccccc21` (stereo unspecified), the Kd is reported as > 4 mM (inactive).
With `O=C(NC1=NCCS1)c1ccc2snnc2c1` the Kd was > 4 mM (inactive).
In the case of `COC1=CC(=O)C=C(OC)C1=O`, the Kd is reported as > 4 mM (inactive).
In the case of `CCCc1cc(=O)[nH]c2nnc(SCC(C)=O)n12`, the Kd is reported as > 4 mM (inactive).
`O=C(O)C1CC2CC1CCC2O` (stereo unspecified) was tested, and the Kd was > 4 mM (inactive).
For `CNC(=O)N1CCN(C(=O)NC)CC1`, the Kd was > 4 mM (inactive).
With `Cc1ccc(N2C(=O)CCC2=O)cc1` the Kd was > 4 mM (inactive).
`Cc1cc(Oc2ccccc2)nc(N)n1` was tested, and the Kd was > 4 mM (inactive).
In the case of `COCC(=O)Nc1ccc(F)cc1F`, the Kd is reported as > 4 mM (inactive).
For `Cc1ccc(-c2nc(N)n(C(=O)c3cccnc3)n2)cc1`, the Kd was > 4 mM (inactive).
In the case of `Cc1cccc(-c2nnc(-c3ccc(N)cc3)o2)c1`, the Kd is reported as > 4 mM (inactive).
For `CC(=O)NC(C)(C)C1CC=C(C)/C(=N\O)C1` (stereo unspecified), the Kd was > 4 mM (inactive).
In the case of `CCc1noc(C)c1C(=O)Nc1ncc(C)s1`, the Kd is reported as > 4 mM (inactive).
In the case of `COC(=O)c1ccccc1N(C)S(C)(=O)=O`, the Kd is reported as > 4 mM (inactive).
For `CC(=O)O[C@@H]1CC2C(C)(C)C(=O)C3OC3[C@]2(C)C2CC[C@@]3(C)[C@H](c4ccoc4)OC(=O)C4OC43[C@@]21C` (stereo partly specified), the Kd was > 4 mM (inactive).
In the case of `NCc1cccc(-n2cccc2)c1`, the Kd is reported as > 4 mM (inactive).
In the case of `C=C1C[C@]23C[C@@]1(O)CC[C@H]2[C@@]12C=C[C@H](O)C(C)(C(=O)O1)[C@H]2[C@@H]3C(=O)O`, the Kd is reported as > 4 mM (inactive).
`Cc1ccc2c(c1)CCCN2C(=O)c1c(C)noc1C` was tested, and the Kd was > 4 mM (inactive).
`Cn1ncc(NC(=O)Nc2ccc(F)cc2F)c1C(N)=O` was tested, and the Kd was > 4 mM (inactive).
`Fc1ccc(N2CCNCC2)cc1` was tested, and the Kd was > 4 mM (inactive).
With `CCOC(=O)c1c(C)nc2c(C#N)cnn2c1C` the Kd was > 4 mM (inactive).
In the case of `COc1cccc(C(=O)N2CCOCC2)c1`, the Kd is reported as > 4 mM (inactive).
In the case of `CC[C@@H]1[C@@H](O)N2C3C[C@H]1C1C(O)[C@]4(C[C@@H]12)c1ccccc1N(C)[C@@H]34` (stereo partly specified), the Kd is reported as > 4 mM (inactive).
For `COc1cccc(-c2nn(-c3ccccc3)cc2CO)c1`, the Kd was > 4 mM (inactive).
`O=C(O)c1ccc(CN2CCCCC2)o1` was tested, and the Kd was > 4 mM (inactive).
`O=S(=O)(N1CCCCC1)n1nnc2ccccc21` was tested, and the Kd was > 4 mM (inactive) and 385 µM.
`O=C1CC2OCC=C3CN4CC[C@]56c7ccccc7N1C5[C@H]2[C@H]3CC46` (stereo partly specified) was tested, and the Kd was > 4 mM (inactive).
In the case of `CC(=O)OC1CCC2(O)CC1(C)CCC1C2CC1(C)C` (stereo unspecified), the Kd is reported as > 4 mM (inactive).
In the case of `COC(=O)c1ccccc1NC(=O)c1cc[n+]([O-])cc1`, the Kd is reported as > 4 mM (inactive).
For `COc1nc(C)ccc1-c1noc(-c2ccco2)n1`, the Kd was > 4 mM (inactive).
`C=C[C@@](C)(O)CCC1C(=C)C[C@H](O)C2C(C)(C)CCCC12C` (stereo partly specified) was tested, and the Kd was > 4 mM (inactive).
For `COC(=O)NNc1ncnc(N)c1[N+](=O)[O-]`, the Kd was > 4 mM (inactive).
`O=C(O)c1ccc2[nH]c3c(c2c1)CSCC3` was tested, and the Kd was > 4 mM (inactive).
With `C#CCCCCCCCCCCCC(O)CC(O)COC(C)=O` (stereo unspecified) the Kd was > 4 mM (inactive).
For `CCn1nnc2c(NCc3ccccn3)ncnc21`, the Kd was > 4 mM (inactive).
For `Nc1cc(-c2ccco2)[nH]n1`, the Kd was > 4 mM (inactive).
`CC(=O)Nc1sccc1C(N)=O` was tested, and the Kd was > 4 mM (inactive).
For `Oc1ccccc1N=Cc1cccnc1`, the Kd was > 4 mM (inactive).
`Cc1ccc2c(c1)=C(c1sc(N)nc1O)C(=O)N=2` was tested, and the Kd was > 4 mM (inactive).
For `O=S1(=O)C=CC(Nc2ccccc2)C1` (stereo unspecified), the Kd was > 4 mM (inactive).
`Cn1nnc2c(N3CCC(C(N)=O)CC3)ncnc21` was tested, and the Kd was > 4 mM (inactive).
For `CC(=O)O[C@H]1CC[C@@]2(C)C(CC[C@]3(C)C2CC=C2C4CC(C)(C)CC[C@]4(C)CC[C@]23C)C1(C)C` (stereo partly specified), the Kd was > 4 mM (inactive).
`FC(F)(F)c1nnc2ccc(N3CCOCC3)nn12` was tested, and the Kd was > 4 mM (inactive).
In the case of `CCN1CCN(CCCNc2ncnc3nc[nH]c23)CC1`, the Kd is reported as > 4 mM (inactive).
In the case of `CC(=O)NC1=C(N(C)C)C(=O)c2ccccc2C1=O`, the Kd is reported as > 4 mM (inactive).
`OCc1ccc(-n2ccnc2)cc1` was tested, and the Kd was > 4 mM (inactive).
`O=c1cnnc(NCc2ccc(F)cc2)[nH]1` was tested, and the Kd was > 4 mM (inactive).
In the case of `Nc1[nH]c(=S)[nH]c(=O)c1-c1ccccc1`, the Kd is reported as > 4 mM (inactive).
In the case of `COc1ccc(/C=C/c2cc(O)cc(O)c2)cc1`, the Kd is reported as > 4 mM (inactive).
With `CN1CCN(c2ncnc3nc[nH]c23)CC1` the Kd was > 4 mM (inactive).
With `COc1cc(OC)c2ccc(=O)oc2c1` the Kd was > 4 mM (inactive).
For `CC1(C)C(=O)CC[C@@]2(C)C1C[C@@H](O)[C@@]1(C)C3=CC(=O)O[C@@H](c4ccoc4)[C@]3(C)CCC21` (stereo partly specified), the Kd was > 4 mM (inactive).
With `COc1ccc(-c2cc(=O)c3c(OC(C)=O)cc(OC(C)=O)cc3o2)cc1` the Kd was > 4 mM (inactive).
For `CCC(=O)Nc1cccc(NC(C)=O)c1`, the Kd was > 4 mM (inactive).
With `COc1ccc([C@@H]2CC(=O)c3c(O)cc(O)cc3O2)cc1O` the Kd was > 4 mM (inactive).
`NC(=O)CSc1ccc2nnc(-c3ccccc3)n2n1` was tested, and the Kd was > 4 mM (inactive).
`CCC(=O)Nc1cc(C(C)C)c(O)cc1C` was tested, and the Kd was > 4 mM (inactive).
For `O=C(CSc1ncn[nH]1)c1ccccc1`, the Kd was > 4 mM (inactive).
`O=C(Nn1cnnc1)c1cccc(C(F)(F)F)c1` was tested, and the Kd was > 4 mM (inactive).
With `CCOc1cc(C)c(Cl)cc1S(=O)(=O)N(C)C` the Kd was > 4 mM (inactive).
For `C[n+]1cccc(C(=O)[O-])c1`, the Kd was > 4 mM (inactive).
For `Cc1nc(-c2ccccc2)sc1CN`, the Kd was > 4 mM (inactive).
For `O=c1cc(-c2ccccc2)oc2cc(O)c(O)c(O)c12`, the Kd was > 4 mM (inactive).
In the case of `CC1(C)CCC(C)(C)c2cc(C(=O)O)ccc21`, the Kd is reported as > 4 mM (inactive).
`Cc1nc2ccccc2n1S(=O)(=O)N1CCCCC1` was tested, and the Kd was “inactive”.
With `O=C(NCc1ccccc1Br)c1ccco1` the Kd was > 4 mM (inactive).
For `CC(=O)NC(NC(C)=O)c1ccccc1`, the Kd was > 4 mM (inactive).
In the case of `O=C1c2cccc3cc(S(=O)(=O)O)cc(c23)C(=O)N1O`, the Kd is reported as > 4 mM (inactive).
`COc1ccc(-c2coc3cc(OC)cc(OC)c3c2=O)cc1` was tested, and the Kd was > 4 mM (inactive).
In the case of `Cc1ccc(Nc2nnns2)cc1C`, the Kd is reported as > 4 mM (inactive).
`CC(C)/C(O)=C1/C(=O)O[C@@H](c2ccoc2)[C@]2(C)C(O)[C@@H](O)[C@@]34OC5(C)OC67CC(C)(C(O)[C@]6(O)[C@@H](O)[C@]3(O5)C12)[C@H](CC(=O)O)[C@]74C` (stereo partly specified) was tested, and the Kd was > 4 mM (inactive).
In the case of `COC(=O)/C(=C1\OC(=O)C(c2ccccc2)C1=O)c1ccccc1` (stereo unspecified), the Kd is reported as > 4 mM (inactive).
With `CCC[C@H]1CC2=C(C[C@@H](CC)CC3=C1C(=O)OC3=O)C(=O)OC2=O` the Kd was > 4 mM (inactive).
With `OC1CCC(C(F)(F)F)CC1` (stereo unspecified) the Kd was > 4 mM (inactive).
In the case of `COc1ccc2c(CC(=O)O)coc2c1`, the Kd is reported as > 4 mM (inactive).
For `Cc1nn2c(-c3ccncc3)nnc2c2ccccc12`, the Kd was > 4 mM (inactive).
`CCOC(=O)Cn1cnc2sc3c(c2c1=O)CCC3` was tested, and the Kd was > 4 mM (inactive).
For `CC(=O)O[C@H]1CC[C@@]2(C)C(=CC(=O)C3C4CCC(C(C)CCCC(C)C)[C@@]4(C)CCC32)C1` (stereo partly specified), the Kd was > 4 mM (inactive).
In the case of `Nn1c(CN2CCCCC2)nc2ccccc2c1=O`, the Kd is reported as > 4 mM (inactive).
With `Cc1ccc(C)n1CCN1CCNCC1` the Kd was > 4 mM (inactive).
With `CC(=O)Oc1ccc(O)cc1` the Kd was > 4 mM (inactive).
`COc1c2ccoc2nc2c(OC)c(OCC(O)C(C)(C)O)ccc12` (stereo unspecified) was tested, and the Kd was > 4 mM (inactive).
In the case of `Cc1ccc(-c2nnc3sc(-c4ccncc4)nn23)cc1`, the Kd is reported as > 4 mM (inactive).
With `CC(O)C(=O)N/N=C/c1ccccc1` (stereo unspecified) the Kd was > 4 mM (inactive).
For `CC(=O)NC(=S)Nc1ccccc1C`, the Kd was > 4 mM (inactive).
`Cc1ccc2cc(C(=O)O)ccc2n1` was tested, and the Kd was > 4 mM (inactive).
For `Cc1cc(C(=O)Nc2ccc3c(c2)OCO3)cs1`, the Kd was > 4 mM (inactive).
For `Cc1ccc(NC(=O)N2CCC(C(N)=O)CC2)cc1`, the Kd was > 4 mM (inactive).
For `CCOC(=O)c1c(SC)nc(=O)[nH]c1C`, the Kd was > 4 mM (inactive).
For `O=C(O[C@@H]1Cc2c(O)cc(O)cc2O[C@@H]1c1cc(O)c(O)c(O)c1)c1cc(O)c(O)c(O)c1`, the Kd was > 4 mM (inactive).
`NS(=O)(=O)c1ccc2c(c1)OCCO2` was tested, and the Kd was > 4 mM (inactive).
With `Nc1nnc(-c2ccncc2)s1` the Kd was > 4 mM (inactive).
For `O=c1ccnc(Nc2ccccc2O)[nH]1`, the Kd was > 4 mM (inactive).
With `CC(=O)Oc1ccc(-c2nc(-c3cccnc3)no2)cc1` the Kd was > 4 mM (inactive).
In the case of `COC(=O)CCSCC(=O)Nc1nccs1`, the Kd is reported as > 4 mM (inactive).
`O=c1ccc2cc(O)c(O)cc2o1` was tested, and the Kd was > 4 mM (inactive).
With `CCNC(=O)CC[C@H](N)C(=O)O` the Kd was > 4 mM (inactive).
In the case of `O=C(O)c1sccc1-n1cccc1`, the Kd is reported as > 4 mM (inactive).
With `Cc1nccn1CCC(=O)O` the Kd was > 4 mM (inactive).
In the case of `COC1C=CC23c4cc5c(cc4CN(CC2O)[C@@H]3C1)OCO5` (stereo partly specified), the Kd is reported as > 4 mM (inactive).
`COC(=O)[C@H]1[C@H]2C[C@H]3c4[nH]c5ccccc5c4CCN3C[C@H]2CC[C@@H]1O` was tested, and the Kd was > 4 mM (inactive).
For `O=c1[nH]c2sc3c(c2c2ncnn12)CCCC3`, the Kd was > 4 mM (inactive).
`Cc1ccc(NS(=O)(=O)N2CCCCC2)cc1` showed a Kd of 0.425 mM.
In the case of `O=C(O)c1cc(F)cc2c1OCOC2`, the Kd is reported as > 4 mM (inactive).
With `O=C(O)CCC(=O)Nc1ccccc1F` the Kd was > 4 mM (inactive).
`CC(C)c1ccc(SCC(=O)N2CCOCC2C(=O)O)cc1` (stereo unspecified) was tested, and the Kd was 0.426 mM.
For `COC(=O)C[C@H]1C(C)(C)C(=O)[C@@H]2CC3=C4CC(=O)O[C@@H](c5ccoc5)[C@]4(C)CCC3C1(C)C2=O` (stereo partly specified), the Kd was > 4 mM (inactive).
`O=C(c1sc2cccc(F)c2c1Cl)N1CCOCC1` was tested, and the Kd was “inactive”.
With `O=C(O)C1CC(=O)N(C2Cc3ccccc3C2)C1` (stereo unspecified) the Kd was > 4 mM (inactive).
With `O=C1CC[C@]23/C=C/C(=O)NCCCCNCCCNC(=O)/C=C/c4ccc(c2c4)O[C@@H]3C1` the Kd was > 4 mM (inactive).
With `CCCNC(=O)CSc1nnc(C)s1` the Kd was > 4 mM (inactive).
For `O=C(Nc1cccc(Cl)c1Cl)c1ccccc1OCC(=O)N1CCOCC1`, the Kd was > 4 mM (inactive).
With `Cc1ccccc1CSc1nnc(C)n1N` the Kd was > 4 mM (inactive).
`CC12CC[C@H](CC1=O)C2(C)C` was tested, and the Kd was > 4 mM (inactive).
